Test results taken from patent US4957735A, “Target-sensitive immunoliposomes- preparation and characterization” (The University of Tennessee Research Corporation, priority 1987, dated 1990).
In brackets after ≈: the same amount, converted by molar mass. Like-named read-outs stand apart in the source and are kept apart here.

Assays:
[1] = target: nucleoside transport system; conditions: cited from earlier work
HSV [2] = assay: Repression of TS immunoliposome mediated therapeutic effect by nucleoside transport inhibitors (HSV yield, TCID50 assay); format: cell-based, HSV-1, HF strain; conditions: for repression of therapeutic effect of AraC-encapsulated TS immunoliposomes: Table II; for Log[HSV], with liposome: 0.1 microg/ml AraC in TS immunoliposomes
Protocol: While not wishing to be bound by theory, it is believed that the surface deposition of TS immunoliposomes was followed by transport of liposome-released drugs into the cytosol via cellular nucleoside transporters. To test this hypothesis, the effect on virus replication of two nucleoside transport inhibitors, p-nitrothiobenzylinosine, and dipyridamole were investigated.
PI was determined using the TCID50 assay described in Example 14
^b HSV infected cells were treated with or without 0.1 microg/ml
(ug/ml) of AraC encapsulated in the TS immunoliposomes.
(§1) Inhibitors were present throughout the assay. […] At 6 hr. […] At 42 hr.

HSV [3] = assay: Efficacy in inhibiting HSV replication in L929 cells (virus yield, TCID50 assay); format: cell-based, HSV-1, HF strain; conditions: HSV-infected L929 cells; for free drug amount required for comparable antiviral activity relative to TS immunoliposome encapsulated AraC: FIG. 7B
Protocol: The HF strain of HSV-1 was propagated on Hep-2 cell. After 3 cycles of freeze and thawing of the virus infected cells, the virus released were isolated from the supernatant after palleting the cell debris at 1000 g for 10 min. These virus stock contained 1×10^8 pfu/ml and were stored in -70° C.
as §1

[4] = L929 cell toxicity assay ([3H]dT incorporation); conditions: mouse, l929 cells
Protocol: (§2) As a measure of cytotoxicity, the drug concentration required to inhibit 50% of [^3 H]dT incorporation 42 hr. later (CD50) was determined.
(§3) PI. […] At 42 hr. PI, the supernatant of the L929 cells was collected and titered for the virus yield. The toxicity of the drug on the general cell population was monitored by [^3 H]dT incorporation since both AraC and ACV inhibit the DNA synthesis.
(§4) L929 cells at 75-80% confluency in 96-well Coster plates were infected with 0.1 multiplicity of infection (MOI) in McCoy's medium with 2% CS for 1 hr. Then the infection medium was removed and replaced with McCoy's medium containing 10% CS. For the target sensitivity assay (see below), L929 cells were grown in 35-mm six-well Linbro plates and a similar procedure was used to infect the L929 cell with various concentration of HSV, ranging from 0-10 MOI.
(§5) HSV-infected L929 cells in 7-mm 96-well plates were used in these experiments and each experiment was performed in quadruplicate. At 3 hr. post infection (PI), the growth medium of infected or uninfected cell was removed, and replaced with 180 micro-l of either liposome-entrapped or free drug AraC or ACV containing medium.
(§6) In the experiments where nucleoside-transport inhibitors were used, the inhibitors were added at 30 min. prior to the AraC-entrapped liposome addition. Inhibitors were present throughout the assay. For the control experiments, the infection medium was replaced with the fresh growth medium. At 6 hr. PI, 1 micro-Ci of [^3 H]dT was added in 20 micro-l for cytotoxicity assay (see below). Then incubation continued at 37° C. in a CO2 incubator. At 42 hr. PI, the growth medium was removed and immediately titered for the virus yield using the 50% tissue culture infective dose (TCID50) assay using Vero cells. The TCID50 assay was done in quadruplicates and the results were expressed in average ±S.D.
(§7) Cytotoxicity of the L929 cells was determined by 20 labeling the cells at 6 hr. PI with [3H]dT. At 42 hr. PI, the growth medium was removed and the cells were washed with cold PBS for a total of three times. Then the DNA was precipitated with 5% trichloroacetic acid (TCA) at 4° C. After two cycles of 2 hr. incubation with fresh TCA, the precipitates at the bottom of the plates were washed one more time with 200 micro-l of fresh TCA. Finally, the precipitates were redissolved and dequenched with 1N NaOH overnight. The solubilized TCA precipitates were counted for tritium radioactivity. Data presented were the average ±S.D. of the quadruplicates.

L929 cells = assay: L929 cell toxicity assay ([3H]dT incorporation); conditions: for CD50 (drug concentration required to inhibit 50% of [3H]dT incorporation): 42 hr.
Protocol: as §2, §3, §4, §5, §6, §7

## OCCN(CCO)c1nc(N2CCCCC2)c2nc(N(CCO)CCO)nc(N3CCCCC3)c2n1 [Dipyridamole]
[1]; noncompetitive inhibitor
  Ki: 3000 nM
HSV [2]
  repression of therapeutic effect of AraC-encapsulated TS immunoliposomes: concentration dependent
HSV [2]; inhibitor 1.4 uM
  Log[HSV] Diff. (with vs without liposome): 1.6
  Log[HSV], without liposome: 5.3 ± 0.3
  Log[HSV], with liposome: 3.7 ± 0.3
HSV [2]; inhibitor 11.1 uM
  Log[HSV] Diff. (with vs without liposome): 1.4
  Log[HSV], without liposome: 4.8 ± 0.3
  Log[HSV], with liposome: 3.4 ± 0.4

## O=[N+]([O-])c1ccc(CSc2ncnc3c2ncn3[C@@H]2O[C@H](CO)[C@@H](O)[C@H]2O)cc1 [p-Nitrothiobenzylinosine, S-(p-Nitrobenzyl)-6-thioinosine]
[1]; competitive inhibitor
  Ki: 1 nM
HSV [2]
  repression of therapeutic effect of AraC-encapsulated TS immunoliposomes: concentration dependent
HSV [2]; inhibitor 12.5 nM
  Log[HSV] Diff. (with vs without liposome): 2.3
  Log[HSV], without liposome: 5.1 ± 0.9
  Log[HSV], with liposome: 2.8 ± 0.8
HSV [2]; inhibitor 100.0 nM
  Log[HSV] Diff. (with vs without liposome): 0.8
  Log[HSV], without liposome: 4.6 ± 0.2
  Log[HSV], with liposome: 3.8 ± 0.4

## Nc1nc2c(ncn2COCCO)c(=O)[nH]1 [ACV, acycloguanosine]
HSV [3]; Human alphaherpesvirus 1, 42 hr. PI, FIG. 8, read-out: 50% effective dose (ED50), virus inhibition
  EC50: 1.1 µg/mL (≈ 4.88 µM)
[4]
  CC50 at 42 h: 0.0125 µg/mL (≈ 0.0555 µM)
L929 cells
  CD50 (drug concentration required to inhibit 50% of [3H]dT incorporation): 12.5 ng/mL

## Nc1ccn([C@@H]2O[C@H](CO)[C@@H](O)[C@@H]2O)c(=O)n1 [AraC, cytosine-beta-D-arabinoside]
HSV [3]
  inhibition of virus replication: only a marginal effect on virus replication
  free drug amount required for comparable antiviral activity relative to TS immunoliposome encapsulated AraC: at least 1000 fold
HSV [3]; listed as free AraC
  free drug amount required for comparable antiviral activity relative to TS immunoliposome encapsulated AraC: ≥ 1000 fold
[4]
  CC50 at 42 h: 0.0003 µg/mL (≈ 0.00123 µM)
L929 cells
  CD50 (drug concentration required to inhibit 50% of [3H]dT incorporation): 0.3 ng/mL
L929 cells; HSV-infected / host L929 cells
  cytotoxicity: cytotoxic to infected cells
L929 cells; uninfected control cells, [3H]dT incorporation
  cytotoxicity to uninfected cells: cytotoxic
